Data as given in patent EP0863769B1 (priority 1996, dated 1998).

Legend:
Format in all cases: binding, Influenza Viren
Conditions in all cases: read-out: Affinität der Bindung an Virus, Kaff
X31 (A/Aichi/2/68) = biological target: X31 (A/Aichi/2/68)
A/England/321/77 = biological target: A/England/321/77
A/USSR/3/85 = biological target: A/USSR/3/85
A/Sichuan/1/87 = biological target: A/Sichuan/1/87
A/FW/1/50 = biological target: A/FW/1/50
A/USSR/90/77 = biological target: A/USSR/90/77
A/Chile/1/83 = biological target: A/Chile/1/83
B/USSR/100/83 = biological target: B/USSR/100/83
B/Ann Arbor/1/86 = biological target: B/Ann Arbor/1/86
B/Yamagata/11/88 = biological target: B/Yamagata/11/88

In the case of “Poly-N-(2-Hydroxyethyl)-acrylamid mit 20% mol. 6SLN [6SLN-PAA]”, the Kd (X31 (A/Aichi/2/68)) is reported as 3000 nM, the Kd (A/England/321/77) is reported as 10 nM and the Kd (A/USSR/3/85) is reported as 100 nM. It also gave a Kd (A/Sichuan/1/87) of 100 nM, a Kd (A/FW/1/50) of 3000 nM and a Kd (A/USSR/90/77) of 300 nM. For the same substance, the Kd (A/Chile/1/83) was 6 µM, the Kd (B/USSR/100/83) was 2000 nM and the Kd (B/Ann Arbor/1/86) was 3000 nM. The Kd (B/Yamagata/11/88) was 100 µM.
